Data as given in patent publication US20050080122A1, “Anti-viral compounds” (priority 2002, published 2005).

Tests used:
Enterovirus = experiment: Antiviral assay: virus yield reduction measured by plaque assay in infected cells; assay type: cell-based
Excerpt: (§1) Representative viruses of the Rhinovirus and Enterovirus genera were chosen for study: Rhinovirus 2 (RV2), Rhinovirus 14 (RV14), Coxsackievirus […] (CVB3) and Echovirus 11 (EV11). Each virus is propogated in two different cell lines as follows: RV2 and RV14 in HEL and HeLa cells, CVB3 in BS-C-1 and HeLa (human cervical adenocarcinoma) cells, EV11 in BS-C-1 (African green monkey kidney, primary) and HEL (human embryonic lung, primary) cells. Propogation of virus strains in two different cell lines is performed as different cell types may utilize different ion transport pathways.
(§2) Antiviral assays are determined as follows. Monolayers of HeLa T cells (human cervical adenocarcinoma) in 12-well plates are infected with 0.01 plaque forming units per cell of Rhinovirus 2 in minimum essential medium with Earle's salts (MEM) supplemented with 1% v/v fetal bovine serum (FBS) or mock-infected with medium for 1 hour. […] Cells are further incubated for 70 hours at 34° C., until extensive cell death is observed in the no drug control. Cells plus culture supernatants are freeze-thawed and virus titre in each sample is determined by plaque assay.

HeLa cells = experiment: Cytotoxicity on uninfected cells, Alamar Blue metabolic activity; details: uninfected HeLa T cells, 70 hours at 34° C.
Rhinovirus = experiment: Antiviral assay: virus yield reduction measured by plaque assay in infected cells; assay type: cell-based
Excerpt: as §1, §2

SMILES | effectiveness against Enterovirus (Enterovirus) | toxicity to HeLa cells compared to the inhibition of virus production (HeLa cells) | effectiveness against Rhinovirus (Rhinovirus)
N=C(N)NC(=O)c1nc(Cl)c(N)nc1N [Amiloride] | particularly effective | – | –
N=C(NCc1ccccc1)NC(=O)c1nc(Cl)c(N)nc1N [Benzamil] | particularly effective | – | –
CCN(c1nc(N)c(C(=O)NC(=N)N)nc1Cl)C(C)C [EIPA, 5-(N-ethyl-N-isopropyl)amiloride] | – | far less toxic | particularly effective
COc1ccc(CCN(C)CCCC(C#N)(c2ccc(OC)c(OC)c2)C(C)C)cc1OC (centres unmarked) [Verapamil] | – | – | particularly effective
